Test results: BindingDB's records for patent US9777020 (AbbVie Inc, 2017)

Target: High affinity nerve growth factor receptor (Homo sapiens, UniProt P04629)
Sequence (P04629 whole entry): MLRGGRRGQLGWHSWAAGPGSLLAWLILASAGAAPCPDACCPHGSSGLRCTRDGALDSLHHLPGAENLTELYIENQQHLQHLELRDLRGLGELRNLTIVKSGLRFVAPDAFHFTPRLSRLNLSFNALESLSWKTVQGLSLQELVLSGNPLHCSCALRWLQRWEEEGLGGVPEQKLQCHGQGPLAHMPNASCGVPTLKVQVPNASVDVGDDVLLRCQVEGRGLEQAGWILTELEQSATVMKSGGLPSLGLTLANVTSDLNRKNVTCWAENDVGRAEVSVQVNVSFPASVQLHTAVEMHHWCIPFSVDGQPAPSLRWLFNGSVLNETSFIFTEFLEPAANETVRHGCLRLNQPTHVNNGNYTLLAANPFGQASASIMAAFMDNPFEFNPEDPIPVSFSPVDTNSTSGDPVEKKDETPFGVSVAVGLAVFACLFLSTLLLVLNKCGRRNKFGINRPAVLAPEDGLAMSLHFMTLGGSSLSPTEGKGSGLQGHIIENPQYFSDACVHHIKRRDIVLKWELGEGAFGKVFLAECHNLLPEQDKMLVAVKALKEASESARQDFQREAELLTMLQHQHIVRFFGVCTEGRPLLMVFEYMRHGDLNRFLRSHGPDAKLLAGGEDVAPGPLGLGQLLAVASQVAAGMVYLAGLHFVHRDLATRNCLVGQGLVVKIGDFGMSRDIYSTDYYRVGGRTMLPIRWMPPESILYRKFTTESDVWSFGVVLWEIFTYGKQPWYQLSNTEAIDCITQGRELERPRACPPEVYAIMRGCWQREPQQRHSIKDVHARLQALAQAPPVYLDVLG

IC50 | SMILES
69.3 nM | Cc1nc2ccc(NC(=O)c3coc4c3C(=O)NCC4)cc2s1 [US9777020, Example 15]
28.6 nM | CCOc1nc(N2CCOCC2)ccc1NC(=O)c1coc2c1C(=O)NCC2 [US9777020, Example 106]
